Measurements: patent publication US20060257368A1, “Devices and methods for improved viability of cells” (Clemson University, priority 2005, published 2006)

What was measured:
[1] = tested on: Human umbilical cord stem cells; test: Survival of stem cells transplanted into brain tissue after exposure to a hypoxia simulating agent; type: in vivo; conditions: cells exposed to 50 uM/ml for 12 hours before transplantation into brain tissue; vs untreated group
Protocol: Human umbilical cord stem cells were exposed to 50 uM/ml ethyl 3,4-dihydroxybenzoate for 12 hours before transplanted into brain tissue to improve their tolerance to hypoxia condition at the injection site after transplantation procedure. Ethyl 3,4-dihydroxybenzoate can increase glucose uptake and glycolytic metabolism of cells. Increased glucose uptake and glycolytic metabolism is an important compensatory mechanism that allows ATP production to be maintained. Such an approach also increases resistance of the transplanted cells to metabolic poison. The resulting transplanted cells will be adjusted to a deficiency of oxygen and, thus, more resistant to transplantation procedures. The survival rate of the transplanted cells is higher for ethyl 3,4-dihydroxybenzoate treated group than that for untreated group.

[2] = tested on: adult Fischer 344 male rat brains; test: Adult brain tissue reaction to PNPX loaded HFMs implanted into rat brain (immunohistochemistry); type: in vivo; conditions: constant release into local brain tissue, compared to blank control HFM; anti-GFAP and anti-CSPG staining; FIG. 6
Text: Following adult central nervous system (CNS) injury, resident cells and blood-derived inflammatory cells become activated and migrate to the lesion site, eventually form a dense glial scar that is believed to play a significant role in inhibiting CNS regeneration. The inhibitory nature of the glial scar is due not only to the existence of inflammatory cell types, but also to the ECM molecules that are derived from them. […] Blocking CSPG biosynthesis may be a potential means to ameliorate CNS glial scar formation. […] CSPG inhibitor 4-nitrophenyl-β-D-xylopyranoside (PNPX) was incorporated into the HFMs during the fabrication process. The inflammatory responses of adult brain tissue to the HFMs with or without PNPX were evaluated and compared.
Polyacrylonitrile/polyvinylchloride copolymer (PAN/PVC) was used as a model non-degradable polymer as a carrier for PNPX delivery, and poly(DL-Lactide-co-glycolide) (PLGA) 50/50 copolymers was employed as a model degradable polymer for PNPX delivery. Polymer-PNPX was dissolved in dimethyl sulfoxide (DMSO). 1% phthalized-chitosan was added into the solution to enhance the PNPX loading efficiency. PNPX loaded HFMs were fabricated using a wet phase-inversion technique. PNPX loading efficiency and releasing profiles were studied in vitro using HPLC. […]

| SMILES | survival rate of the transplanted cells [1] | glial scarring response in the vicinity of the PNPX loaded HFM [2] |
| --- | --- | --- |
| CCOC(=O)c1ccc(O)c(O)c1 [ethyl 3,4-dihydroxybenzoate] | higher | – |
| O=[N+]([O-])c1ccc(O[C@@H]2OC[C@@H](O)[C@H](O)[C@H]2O)cc1 [PNPX, 4-nitrophenyl-β-D-xylopyranoside] | – | significantly (P<0.05) suppressed |
